Each structure is given as a SMILES string.

One series relates to VP6 gene. The experiment in a line: Gene expression of structural protein VP6 in RV-infected MA104 cells, real-time quantitative PCR. The class given is cell-based, Rotavirus. The following applies: 1 μM, 5 M and 10 μM, compared with RV group, most significant at 5 μM. From the text:
The Experimental Method is as Follows: • (1) Extraction and quantification of total RNA; • (2) Primer sequence design; • (3) Reverse transcription reaction; • (4) SYBR Green I fluorescent labeling is used for real-time quantitative PCR detection of expression of VP6 gene.

Series [1] deals with Wa strain RV. Put plainly: Direct killing effect on RV (drug mixed with virus), CCK-8 viral inhibition rate. The series is classed as cell-based, Rotavirus. The following applies: MA104 cells, 100 TCID50 virus, 48 h; inhibition rate lower than ribavirin group. Here is the method:
The drug is mixed with 100 TCID50 virus solution (the virus acts with 10 μg/mL pancreatin for 30 min) at an equal volume for 2 h. After the cells are washed twice with PBS, the cells are added to the 96-well culture plate of the MA104 cells that grow to the single layer. In the positive control group, the same operation as above is conducted for ribavirin and RV, and only an equal volume of DMEM (without serum) is added to the normal cell control group and the viral control group. Incubation is conducted at 37° C. and 5% CO2 for 2 h. Then, the mixed solution is sucked out, the cell maintenance solution is added, and each well contains 100 μL. Incubation is conducted at 37° C. and 5% CO2 for continuous observation. After culture for 48 h, CCK-8 kit is used for detection. 1/10 volume of CCK-8 solution is added to each well, and incubated in the incubator. After 90 min, the absorbance is detected and recorded at 450 nm wavelength. The viral inhibition rate of the drug is calculated, and the experiment is repeated for 3 times. The formula of the viral inhibition rate is:
(§1) {(Adrug group−Avirus group)/(Anormal group−Avirus group)×100%}.

In series [2] the test system is Wa strain RV. The experiment in a line: Effect against RV synthesis (drug after virus), CCK-8 viral inhibition rate. The following applies: 48 h; for effect of synthesis inhibition on RV: MA104-2 cells, 100 TCID50 virus. The class given is cell-based, Rotavirus. Here is the method: 100 TCID50 virus solution (the virus acts with 10 μg/mL pancreatin for 30 min) is added to the 96-well culture plate of the MA104-2 cells that grow to the single layer, and each well contains 100 μL. The cells have been washed twice with PBS. Normal cell control is set, and added with an equal volume of DMEM. Incubation is conducted at 37° C. and 5% CO2 for 2 h. Then, the virus solution is sucked out and added into different concentrations of drug solution and ribavirin respectively, and each well contains 100 μL. Virus control is set. Only the cell maintenance solution is added, and each well contains 100 μL. Incubation is conducted at 37° C. and 5% CO2 for continuous observation. After continuous culture for 48 h, CCK-8 kit is used for detection. 1/10 volume of CCK-8 solution is added to each well, and incubated in the incubator. After 90 min, the absorbance is detected and recorded at 450 nm wavelength. The viral inhibition rate of the drug is calculated, and the experiment is repeated for 3 times. The formula of the viral inhibition rate is:
as §1

Another series deals with MA104 cells. Put plainly: Toxicity of Chebulinic acid to MA104 cells by CCK8 method. The class given is cell-based. Conditions: 48 h. Here is the method:
According to the common drug concentration range of Chebulinic acid, the cytotoxicity pre-experiment is performed between 1 μM and 25 μM in this experiment. The MA104 cells at the logarithmic growth stage are observed under a microscope. The cellular morphology is uniform and full with clear edges, and when the number reaches 80%, digestion, centrifugation and re-suspension are conducted. After further dilution of the suspension, […] is taken on a blood cell counting plate to count and calculate the required cell volume. Then, the cells are laid in a 96-well plate, 100 µL of cell suspension is added to each well, and the cell density is 8×10^4 cells/mL. When the cells adhere to the wall to form a single layer, the drug group is administered, and the normal group is added with an equal volume of DMEM (without serum). After incubation for 48 h, the cytotoxicity of Chebulinic acid is detected by CCK8 reagent. 1/10 volume of CCK8 solution is added to each well and incubated in an incubator. After 90 min, the absorbance is detected and recorded under the condition of oscillation for 10 s and at 450 nm wavelength. The formula for the relative survival rate of the cells is:
{(Axpenmentai group−Ablank)/(Acontrol group−Ablaimk)×100%}.

Series [3] has as its system Wa strain RV. The experiment in a line: Effect against RV adsorption (drug before virus), CCK-8 viral inhibition rate. The series is classed as cell-based, Rotavirus. The following applies: MA104 cells, 1 μM, 5 μM and 10 μM, compared with ribavirin group. How it is done:
The 96-well culture plate of the MA104 cells that grow to the single layer is added with the drug solution. Each drug solution is repeated with 6 wells, and each well contains 100 μL. An equal volume of ribavirin is added to the positive control group, and only an equal volume of DMEM culture solution (without serum) is added to the normal cell control group and the viral control group. Incubation is conducted at 37° C. and 5% CO2 for 2 h. The drug solution is sucked out. Except the normal cell control group, 100 TCID50 virus is added (the virus acts with 10 μg/mL pancreatin at 37° C. for 30 min), and each well contains 100 μL. Incubation is conducted at 37° C. and 5% CO2 for 2 h. The virus is sucked out, the cell maintenance solution is added, and each well contains 200 μL. Incubation is conducted at 37° C. and 5% CO2 for continuous observation. After culture for 48 h, CCK-8 kit is used for detection. 1/10 volume of CCK-8 solution is added to each well, and incubated in the incubator. After 90 min, the absorbance is detected and recorded at 450 nm wavelength. The experiment is repeated for 3 times. The formula of the viral inhibition rate is:
as §1

[4] abbreviates: Rotavirus, read-out: anti-RV inhibition rate (synthesis).

Consider `O=C(O)C[C@@H]1C(=O)O[C@H]2[C@H](OC(=O)c3cc(O)c(O)c(O)c3)[C@@H](OC(=O)c3cc(O)c(O)c4c3[C@H]1[C@H](O)C(=O)O4)[C@H](OC(=O)c1cc(O)c(O)c(O)c1)O[C@@H]2COC(=O)c1cc(O)c(O)c(O)c1` [Chebulinic acid], for which, in the series on VP6 gene, the VP6 expression result was “significantly decreased”. Also, the “direct killing effect on RV” value in the series with Wa strain RV [1] was “no obvious direct killing effect”. Further, the “effect of synthesis inhibition on RV” value in the series on Wa strain RV [2] is “obvious effect of synthesis inhibition”. In addition, in the series on Wa strain RV [2] (setting [4]), the inhibition at 1 µM is 80%, the inhibition at 5 µM stood at 75.3% and the inhibition at 10 µM was found to be 61.9%. In the series with MA104 cells (1 μM to 10 μM), the “drug toxicity to the cells” value is given as “no drug toxicity”. Besides, the average survival rate entry in the series on MA104 cells (Chebulinic acid 1 μM to 10 μM) is listed as “above 95%”. In addition, in the series with Wa strain RV [3], the anti-RV adsorption effect result is given as “no obvious anti-RV adsorption effect”.

Regarding `NC(=O)c1ncn([C@@H]2O[C@H](CO)[C@@H](O)[C@H]2O)n1` [ribavirin, reference compound], the “effect of synthesis inhibition on RV” value in the series on Wa strain RV [2] is recorded as “obvious effect of synthesis inhibition”.
